What all share (type): in vivo
The subject of one experiment is Phalaris paradoxa. The experiment can be described thus: Post-emergence test/outdoors (Example E, California). The conditions noted are these: 42 g a.i./ha to 45 g a.i./ha, + SAS, outdoors, irrigation wheat growing area, 8 tests.
In a further experiment the test system is winter wheat. The experiment can be described thus: Post emergence tests/outdoors (Example C, Germany and France), crop compatibility. As to conditions: 42 g of a.i./ha to 45 g of a.i./ha, post-emergence (spring), outdoors, 1 to 8 weeks after the treatment, 439 tests. The procedure:
(§1) Post Emergence Tests/outdoors Under outdoor conditions, the sodium salt of the compound of the formula (I) was tested in winter wheat in Germany and France against economically important weeds. The small-plot experiments were carried out on cultivated land under agricultural use, with cultivation and climate conditions which can be considered to be representative for the period of the trial. Areas with particularly extensive weed growth were chosen by way of preference. The active compound was applied by the post-emergence method (spring) across the area by the spray method, with an average droplet size. To produce a useful preparation of active compound, the active compound was formulated as 70 WP or 70 WG (70% w/w water-dispersible powder or granules) and applied with customary amounts of water. To assess the crop compatibility, from 1 to 8 weeks after the treatment, plant growth inhibitions or […] of the leaf area were assessed in % damage in comparison to the development of the untreated control. At different intervals after the treatment, the herbicidal activity was assessed as % reduction in comparison to the untreated control, based on the weed development. The figures denote: 0%=no damage of the crops or no herbicidal effect, 100%=total destruction of the crops or the weeds.

The test system of a further experiment is Alopecurus myosuroides. The experiment can be described thus: Post emergence tests/outdoors (Example C, Germany and France). The conditions noted are these: 42 g of a.i./ha to 45 g of a.i./ha, post-emergence (spring), outdoors, winter wheat, 70 WP or 70 WG, 204 tests. The procedure: as §1
The next experiment deals with Capsella bursa-pastoris. The experiment is described as above. As to conditions: 42 g of a.i./ha to 45 g of a.i./ha, post-emergence (spring), outdoors, winter wheat, 70 WP or 70 WG, 6 tests. The protocol: as §1
The next experiment concerns Poa annua. The description is as above. As to conditions: 42 g of a.i./ha to 45 g of a.i./ha, post-emergence (spring), outdoors, winter wheat, 70 WP or 70 WG, 5 tests. The procedure:
as §1

The next experiment has as its system Apera spica-venti. The description is as above. As to conditions: 42 g of a.i./ha to 45 g of a.i./ha, post-emergence (spring), outdoors, winter wheat, 70 WP or 70 WG, 87 tests. The protocol:
as §1

The next experiment concerns Agropyron repens. The description is as above. As to conditions: 42 g of a.i./ha to 45 g of a.i./ha, post-emergence (spring), outdoors, winter wheat, 70 WP or 70 WG, 83 tests. The procedure: as §1
The subject of another experiment is Sinapis arvensis. The description is as above. The conditions noted are these: 42 g of a.i./ha to 45 g of a.i./ha, post-emergence (spring), outdoors, winter wheat, 70 WP or 70 WG, 4 tests. The procedure: as §1
The test system of a further experiment is Wheat. The experiment can be described thus: Post-emergence test/outdoors (Example E, California), crop compatibility. As to conditions: 42 g a.i./ha to 45 g a.i./ha, + SAS, outdoors, 7 tests.

From patent US6395684B1, “Selective herbicides based on a substituted phenyl sulfonyl amino carbonyl triazolinone” (Bayer Aktiengesellschaft, priority 1998, dated 2002) come the findings set out here.

Structures can show the parent of a compound that is named as a salt.

For `CCCOc1nn(C(=O)NS(=O)(=O)c2ccccc2C(=O)OC)c(=O)n1C` [(I)-Na-salt, 2-(2-methoxycarbonyl-phenylsulphonylaminocarbonyl)-4-methyl-5-propoxy-2,4-dihydro-3H-1,2,4-triazol-3-one], the “herbicidal effect (%)” value is recorded as 99% in the experiment with Phalaris paradoxa; 91% in the experiment on Alopecurus myosuroides; 100% with Capsella bursa-pastoris; 67% in the experiment with Poa annua; 94% with Apera spica-venti; 89% in the experiment with Agropyron repens. Also, in the experiment on Sinapis arvensis, the “herbicidal effect (%)” value came out at 100%. The “Damage to the crop (wheat)” value in the experiment with winter wheat turned out to be 2%; in the experiment on Wheat, 5%.
